In ChEMBL document CHEMBL1165911, “Elaborate ligand-based pharmacophore exploration and QSAR analysis guide the synthesis of novel pyridinium-based potent beta-secretase inhibitory leads” (Bioorg Med Chem, 2010):

How the values were obtained:
Beta-secretase 1 [1] = biological target: T1, Beta-secretase 1 (Homo sapiens, UniProt P56817); experiment: Inhibition of BACE1 at 50 uM after 2 hrs by FRET assay
Renin (Homo sapiens) = biological target: T2, Renin (Homo sapiens) (UniProt P00797); experiment: Inhibition of renin at 50 uM after 30 mins by fluorometric assay
T2 sequence (whole entry): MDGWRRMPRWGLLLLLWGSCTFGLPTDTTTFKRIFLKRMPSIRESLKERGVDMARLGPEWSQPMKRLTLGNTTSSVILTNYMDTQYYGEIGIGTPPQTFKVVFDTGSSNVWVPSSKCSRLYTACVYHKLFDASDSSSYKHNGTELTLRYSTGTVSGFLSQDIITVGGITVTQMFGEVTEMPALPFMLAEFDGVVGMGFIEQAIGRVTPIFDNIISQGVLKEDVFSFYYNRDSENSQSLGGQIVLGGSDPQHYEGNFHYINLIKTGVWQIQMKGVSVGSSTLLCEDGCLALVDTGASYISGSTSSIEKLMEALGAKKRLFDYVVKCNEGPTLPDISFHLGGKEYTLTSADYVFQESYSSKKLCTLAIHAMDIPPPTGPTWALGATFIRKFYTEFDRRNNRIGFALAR

Beta-secretase 1 [2] = biological target: T1, Beta-secretase 1
Description: Inhibition of BACE1 after 2 hrs by FRET assay

T1 sequence (P56817 whole entry): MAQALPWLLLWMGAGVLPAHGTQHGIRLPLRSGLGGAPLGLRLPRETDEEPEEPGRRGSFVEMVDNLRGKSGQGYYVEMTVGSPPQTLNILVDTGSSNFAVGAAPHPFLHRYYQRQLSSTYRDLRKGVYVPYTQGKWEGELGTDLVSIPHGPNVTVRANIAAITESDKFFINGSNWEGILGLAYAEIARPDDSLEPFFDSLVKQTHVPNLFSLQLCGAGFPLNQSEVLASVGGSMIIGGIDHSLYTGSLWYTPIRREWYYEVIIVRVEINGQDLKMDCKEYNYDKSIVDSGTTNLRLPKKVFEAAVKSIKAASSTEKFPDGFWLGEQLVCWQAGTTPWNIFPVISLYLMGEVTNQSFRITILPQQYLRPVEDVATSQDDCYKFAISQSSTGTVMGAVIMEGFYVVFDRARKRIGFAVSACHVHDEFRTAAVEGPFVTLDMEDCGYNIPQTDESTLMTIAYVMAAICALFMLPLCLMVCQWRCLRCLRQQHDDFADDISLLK

inhibition (Beta-secretase 1 [1]) [%]	inhibition (Renin (Homo sapiens)) [%]	IC50 (Beta-secretase 1 [2]) [µM]	SMILES
58			Cc1cccc(NC(=O)c2cccc(NC(=O)C[n+]3cccc(C(=O)NCCc4ccccc4)c3)c2)c1
44			Cc1cccc(NC(=O)c2cccc(NC(=O)C[n+]3cccc(C(N)=O)c3)c2)c1
51			O=C(C[n+]1ccccc1)Nc1cccc(NC(=O)c2ccccc2)c1
4			Cc1ccc(S(=O)(=O)Nc2cccc(NC(=O)C[n+]3cccc(C(N)=O)c3)c2)cc1
72	26	4	Cc1ccc(NC(=O)c2cccc(NC(=O)C[n+]3cccc(C(=O)NCCc4ccccc4)c3)c2)cc1
64		30.2	NC(=O)c1ccc[n+](CC(=O)Nc2cccc(C(=O)Nc3ccc(Cl)cc3)c2)c1
100	0	1.9	COc1ccc(NC(=O)c2cccc(NC(=O)C[n+]3cccc(C(N)=O)c3)c2)cc1
42			Cc1ccc(NC(=O)c2cccc(NC(=O)C[n+]3ccccc3)c2)cc1
54		44.7	NC(=O)c1ccc[n+](CC(=O)Nc2cccc(NC(=O)c3ccccc3)c2)c1
78	26	12	O=C(C[n+]1cccc(C(=O)NCCc2ccccc2)c1)Nc1cccc(C(=O)Nc2ccc(Cl)cc2)c1
100	0	1	O=C(C[n+]1ccccc1)Nc1cccc(C(=O)Nc2ccc(Cl)cc2)c1
50			COc1ccc(NS(=O)(=O)c2cccc(NC(=O)C[n+]3ccccc3)c2)cc1
36			Cc1ccc(S(=O)(=O)Nc2cccc(NC(=O)C[n+]3cccc(C(=O)NCCc4ccccc4)c3)c2)cc1
61			Cc1cccc(NC(=O)c2cccc(NC(=O)C[n+]3ccccc3)c2)c1
34			COc1ccc(NS(=O)(=O)c2cccc(NC(=O)C[n+]3cccc(C(N)=O)c3)c2)cc1
24			Cc1ccc(C(=O)Nc2cccc(NC(=O)C[n+]3cccc(C(N)=O)c3)c2)cc1
100	22	2.2	Cc1ccc(C(=O)Nc2cccc(NC(=O)C[n+]3cccc(C(=O)NCCc4ccccc4)c3)c2)cc1
100	0	3.7	COc1ccc(NC(=O)c2cccc(NC(=O)C[n+]3ccccc3)c2)cc1
55			O=C(C[n+]1cccc(C(=O)NCCc2ccccc2)c1)Nc1cccc(NC(=O)c2ccccc2)c1
44			COc1ccc(NC(=O)c2cccc(NC(=O)C[n+]3cccc(C(=O)NCCc4ccccc4)c3)c2)cc1
69			Cc1ccc(NC(=O)c2cccc(NC(=O)C[n+]3cccc(C(N)=O)c3)c2)cc1
68	0	13	Cc1ccc(C(=O)Nc2cccc(NC(=O)C[n+]3ccccc3)c2)cc1
		100	Clc1ccc(/C=N/Nc2nc(NCc3ccc(Cl)cc3)nc(N3CCOCC3)n2)cc1
		100	CCOc1cc(/C=N\NC(=O)COc2ccc(C)cc2)cc(I)c1O
		81.8	Cc1ccc(C)c(Nc2nc(N/N=C/c3cc(Br)c(O)c(Br)c3C)nc(N3CCOCC3)n2)c1
		500	CCCc1cc(=O)oc2cc(OCC(=O)NCC(=O)NCC(=O)O)ccc12
		100	Oc1c(I)cc(I)cc1/C=N/Nc1nc(Nc2cccc3ccccc23)nc(N2CCOCC2)n1
		100	Cc1cc(Br)c(Nc2nc(CN3CCOCC3)nc(N/N=C/c3cc(I)cc(C)c3O)n2)cc1Cl
		100	NS(=O)(=O)c1ccc(NC(=O)CSc2nnc(-c3ccccc3)c(-c3ccccc3)n2)cc1
		10	O=C(Nc1cc(Br)ccc1N1CCOCC1)c1cc2ccccc2oc1=O
